Data as given in patent US20060281700A1, “SYNERGISTIC MODULATION OF FLT3 KINASE USING AMINOPYRIMIDINES KINASE MODULATORS” (priority 2005, published 2006).

Experiments:
[1] = system: Baf3-ITD cells; experiment: Cell proliferation assay, single agents and FTI/FLT3 inhibitor combinations, Baf3-ITD; type: cell-based, murine
Protocol: (§1) The cell lines that were tested included those that are dependent on FLT3ITD mutant activity for growth (MV4-11 and Baf3-FLT3ITD), FLT3 wt activity for growth (Baf3FLT3) and those that grow independent of FLT3 activity (THP-1). […] Baf3-FLT3 and Baf3-FLT3ITD cell lines were obtained from Dr. Michael Henrich and the Oregon Health Sciences University. The Baf3 FLT3 cell lines were created by stable transfection of parental Baf3 cells (a murine B cell lymphoma line dependent on the cytokine IL-3 for growth) with either wild-type FLT3 or FLT3 containing the ITD insertion in the juxatamembrane domain of the receptor resulting in its constitutive activation. Cells were selected for their ability to grow in the absence of IL-3 and in either the presence of FLT3 ligand (Baf3-FLT3) or independent of any growth factor (Baf3-ITD). […]
(§2) Dose responses for the individual compounds alone were determined for each cell line using a standard 72-hour cell proliferation assay (see FIGS. 6.1-6.8). […]
(§3) To statistically evaluate the synergy of a FLT3 inhibitor and an FTI in FLT3 dependent cell lines, dosing combinations were evaluated by the method of Chou and Talalay. See Chou T C, Talalay P. (1984) “Quantitative analysis of dose-effect relationships: the combined effects of multiple drugs or enzyme inhibitors.” Adv Enzyme Regul. […] Using this method, multiple FTI and FLT3 combinations were evaluated. […]

[2] = system: MV4-11 AML cells; experiment: Cell proliferation assay, single agents and FTI/FLT3 inhibitor combinations, MV4-11; type: cell-based, human
Protocol: Using this method inhibitors are added simultaneously to cells in a ratio of the IC50 dose of each compound alone. The data is collected and subject to isobolar analysis of fixed ratio dose combinations as described by Chou and Talalay. This analysis is used to generate a combination index or CI. The CI value of 1 corresponds to compounds that behave additively; CI values <0.9 are considered synergistic and CI values of >1.1 are considered antagonistic. Using this method, multiple FTI and FLT3 combinations were evaluated. […] Using the isobologram, synergy can be graphically represented. Data points for combinations that are additive lie along the isobolar line at a given dose affect (CI=1). Data points for combinations that are synergistic fall to the left, or under, the isobolar line for a given dose effect (CI<0.9). Data points for combinations that are antagonistic fall to the right, or over, the isobolar line for a given dose effect (CI>1.1).
Inhibition data was analyzed using Calcsyn (BioSoft, Ferguson, Mo.) and the combination index (C.I.) calculated. C.I. values <0.9 are considered synergistic.

[3] = system: Baf3-FLT3 cells stimulated with 100 ng/ml FLT ligand; experiment: Cell proliferation assay, single agents and FTI/FLT3 inhibitor combinations, Baf3-FLT3; type: cell-based, murine
Protocol: as §1, §2, §3

[4] = cited from earlier work
[5] = multicenter Phase II trial, relapsed AML
[6] = patients with relapsed and refractory AML, phase I

Cn1cncc1C(N)(c1ccc(Cl)cc1)c1ccc2c(c1)c(-c1cccc(Cl)c1)cc(=O)n2C (single isomer, unassigned; (+)) [Tipifarnib, (+)-6-[amino(4-chlorophenyl)(1-methyl-1H-imidazol-5-yl)methyl]-4-(3-chlorophenyl)-1-methyl-2(1H)-quinolinone]
increase in potency of Tipifarnib with a single sub-IC50 dose of FLT3 inhibitor Compound A ([1]; Baf3-ITD, Compound A 50 nM): more than 3 fold | IC50 ([1]; Mus musculus, Baf3-ITD proliferation, FTI alone or in the combination named): 548 nM | IC50 ([2]; Homo sapiens, MV4-11 proliferation, FTI alone or in the combination named): 15.4 nM | increase in potency of Tipifarnib with a single sub-IC50 dose of FLT3 inhibitor Compound A ([2]; MV4-11, Compound A 50 nM): more than 3 fold | increase in potency of Tipifarnib with a single sub-IC50 dose of FLT3 inhibitor Compound A ([3]; Baf3-FLT3, Compound A 100 nM): more than 3 fold | IC50 ([3]; Mus musculus, Baf3-FLT3 proliferation, FTI alone or in the combination named): 1.85 nM | >50% reduction in bone marrow blasts [4, 5]: 31 of 50 | complete responses (bone marrow blasts <5%) [4, 5]: 17 of 50 | patients achieving complete remission [4, 6]: 2 patients | response rate [4, 6]: ~30%
